Data published in ChEMBL document CHEMBL5352429, “Designed symmetrical β-hairpin peptides for treating multidrug-resistant salmonella typhimurium infections” (Eur J Med Chem, 2022).
Calls of active or inactive are those of the source. Peptide text beside a SMILES is read from it.

Experiments:
Format in all cases: functional, organism-based
Salmonella typhimurium [1] = test: Antibacterial activity against Salmonella typhimurium DT104 infected in ICR mouse model assessed as reduction in bacterial translocation to spleen at 2 mg/kg, ip administered for 3 days and measured on day 7 by serial dilution method; details: Salmonella enterica subsp. enterica serovar Typhimurium, time 7.0 day
Salmonella typhimurium [2] = test: Antibacterial activity against multi-drug resistant Salmonella typhimurium DT104 infected in ICR mouse model assessed as reduction in bacterial population in fecus at 2 mg/kg, ip administered for 3 days; details: Salmonella enterica subsp. enterica serovar Typhimurium, time 3.0 day
Salmonella typhimurium [3] = test: Antibacterial activity against Salmonella typhimurium DT104 assessed as reduction in IL-8 production in serum at 20 mg/kg, ip administered for 3 days and measured on day 7; details: Salmonella enterica subsp. enterica serovar Typhimurium, time 7.0 day
Salmonella typhimurium [4] = test: Antibacterial activity against Salmonella typhimurium DT104 infected in ICR mouse model at 2 mg/kg, ip administered for 3 days and measured on day 7; details: Salmonella enterica subsp. enterica serovar Typhimurium, time 7.0 day

Measured: Activity

C[C@@H](O)[C@H](NC(=O)[C@H](CS)NC(=O)[C@H](CCCCN)NC(=O)[C@H](Cc1c[nH]c2ccccc12)NC(=O)[C@H](CCCCN)NC(=O)[C@@H](N)Cc1c[nH]c2ccccc12)C(=O)N[C@@H](CCCCN)C(=O)N[C@@H](CO)C(=O)NCC(=O)N[C@@H](CS)C(=O)N[C@@H](CCCCN)C(=O)N[C@@H](Cc1c[nH]c2ccccc12)C(=O)N[C@@H](CCCCN)C(=O)N[C@@H](Cc1c[nH]c2ccccc12)C(N)=O (H-WKWKCTKSGCKWKW-NH2)
active: Salmonella typhimurium [1] | Salmonella typhimurium [2] | Salmonella typhimurium [3] | Salmonella typhimurium [4]
